The source of these data is publication PMC11167047 (Cell Death Discovery, 2024).

In assay [1] the test system is 335 wild-type protein kinases. Kind of assay: kinome screen, selectivity score. Type of assay: biochemical. As to the method: (§1) The Kinome Screening was performed by Reaction Biology Europe GmbH (http://reactionbiology.com; Freiburg i. Br., Germany). […] A kinase inhibition profile of the three meriolins was determined by measuring residual activity at two concentrations each in single values in 335 wild-type protein kinase assays.
The selectivity score was calculated as: SelectivityScore=Countofdatapoints<50%/(Totalnumberofdatapoints)

In assay [2] the test system is retinoblastoma (RB) protein phosphorylation. Kind of assay: immunoblotting of phospho-RB in Ramos cells. Type of assay: cell-based, human. The note with it: for phosphorylation of RB at p-Ser249 and p-Thr252: 0.1 or 1 µM (R547 1 µM). As to the method: (§2) Cells were seeded at a density of 2 × 10^6 cells, treated as specified and harvested by centrifugation at 3000 rpm for 5 min, followed by freezing in liquid nitrogen. The cell pellets were thawed on ice and quick-frozen and defrozen in liquid nitrogen for three times, then lysed on ice in lysis buffer (20 mM Tris-HCl, 150 mM NaCl, 1% v/v Triton X-100, 0.5 mM EDTA, 10 mM NaF, 2.5 mM Na4P2O7, protease inhibitor (Sigma, #P2714)) for 30 min, accompanied by vortexing. Subsequently, centrifugation 13,300 rpm for 15 min purified cell lysates from cell debris. The supernatant was transferred to a new tube and the protein concentration was determined by Bradford assay. The samples were diluted with sample buffer. SDS-Page and Western Blot were conducted in accordance with standard workflows. […] The antibody baths were stored at 4 °C and re-used.
(§3) The density of the individual protein band was determined using Image Studio^TM Lite Version 5.2. The density of each protein was divided by the average of all bands of this protein. The ratios of the protein of interest were normalized to the ratio of the respective loading control. To determine the fold change, each normalized ratio was divided by the normalized band of the control line (untreated cells). Fold change is 1 for the control line, n ≥ 2. The results are shown as mean ± standard deviation and were visualized with GraphPad Prism 7.
Background: In western blotting, separated proteins are transferred to a membrane and probed.

The test system of assay [3] is RNA polymerase II phosphorylation at Ser2. Kind of assay: immunoblotting of p-Ser2 RNA polymerase II in Ramos cells. It counts as cell-based, human. The note with it: 0.1 and 1 µM (R547 1 µM), 4-24 h. As to the method: as §2, §3
For assay [4], the system named is CDK9 and cyclin T1 protein levels. Kind of assay: immunoblotting of CDK9 and cyclin T1 in Ramos cells. It counts as cell-based, human. The note with it: 0.1 and 1 µM, 4-24 h. Here is the method: as §2, §3
In assay [5] the test system is HeLa cells. The assay can be described thus: EdU incorporation by microscopy. It counts as cell-based, human. The note with it: 24 h, non-lethal dose (IC25). Here is the method:
The EdU-assay, utilizing the EdU-click 488 kit from Baseclick GmbH (#BCK-TCell-FC488) was performed according to manufacturer’s instructions. The EdU-assay is employed to measure the incorporation of 5-ethynyl-2’-deoxyuridine (EdU) into DNA, providing a means to assess cell proliferation. Cell proliferation involves the synthesis of new DNA during the S phase of the cell cycle. When cells are exposed to 5-EdU, they incorporate the compound into their DNA at thymidine bases during S phase. A fluorophore-labeled azide reacts with the incorporated EdU, enabling its detection through microscopy (sigmaaldrich.com). The experimental process involves seeding cells and allowing them to grow to the desired density, applying the indicated treatments, and subsequently adding EdU to the media. After fixation and permeabilization, the EdU detection, along with DAPI-stained nuclei, is carried out using fluorescence microscopy.

Assay [6] has as its system cyclin B1 expression. The assay can be described thus: immunoblotting of cyclin B1 in Ramos cells. It counts as cell-based, human. The note with it: 24 h. As to the method:
as §2, §3

In assay [7] the target is T1, DYRK4 (Homo sapiens, UniProt Q9NR20).
T1 construct: purchased Reaction Biology Europe GmbH (formerly ProQinase)
T1 sequence (Q9NR20 1-520): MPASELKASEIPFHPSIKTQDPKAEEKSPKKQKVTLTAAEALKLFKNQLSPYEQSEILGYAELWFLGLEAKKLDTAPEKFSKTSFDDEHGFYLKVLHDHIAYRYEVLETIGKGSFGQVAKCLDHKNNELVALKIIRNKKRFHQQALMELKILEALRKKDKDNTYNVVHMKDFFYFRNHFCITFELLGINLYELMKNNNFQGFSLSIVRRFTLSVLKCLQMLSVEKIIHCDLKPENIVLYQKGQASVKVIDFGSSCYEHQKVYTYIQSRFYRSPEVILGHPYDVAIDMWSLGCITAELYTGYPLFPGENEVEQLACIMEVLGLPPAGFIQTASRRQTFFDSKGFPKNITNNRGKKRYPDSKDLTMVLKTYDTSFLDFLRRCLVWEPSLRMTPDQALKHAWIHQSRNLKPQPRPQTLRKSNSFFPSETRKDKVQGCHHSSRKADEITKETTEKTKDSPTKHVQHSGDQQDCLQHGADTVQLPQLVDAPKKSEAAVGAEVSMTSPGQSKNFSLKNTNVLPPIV
Kind of assay: kinome screen (33PanQinase). It counts as biochemical. As to the method:
as §1
The residual activity was calculated as: Res.Activity%=100x(Signalofcompound−lowcontrol/highcontrol−lowcontrol)

Assay [8] deals with SUPB15. The note with it: read-out: IC50 (SUPB15); cytotoxicity, 24 h.
Procedure: (§4) The resazurin reduction assay, which is also known as AlamarBlue® assay, was used for the determination of cell viability in all cytotoxicity determinations shown in the present work, as previously described [22]. Briefly, cells were seeded at a specific density depending on the incubation time (24 h: 1 × 10^6 cells/ml) in a 96-well plate and incubated with increasing compound concentrations (0.01–30 µM). After the specified treatment time, resazurin (Sigma, #R7017) was added to a final concentration of 40 µM. […] The viability of control cells was set to 100% and all other values were normalized to the control condition, the dose-response curves were then fitted with Prism v7.01 (GraphPad software, La Jolla, CA, USA). The reduction of resazurin to resorufin is proportional to aerobic respiration; therefore, it is used as a measure for the cell viability and cytotoxicity of a tested compound.
Assay [9] relates to KOPTK1. The note with it: read-out: IC50 (KOPTK1); cytotoxicity, 24 h.
Procedure: as §4
For assay [10], the system named is MOLT4. The note with it: read-out: IC50 (MOLT4); cytotoxicity, 24 h.
Procedure: as §4
Assay [11] has as its system K562. The note with it: read-out: IC50 (K562); cytotoxicity, 24 h.
Procedure: as §4
The test system of assay [12] is HL60. The note with it: read-out: IC50 (HL60); cytotoxicity, 24 h.
Procedure: as §4
Assay [13] has as its system CLL16 chronic lymphocytic leukemia cells. The note with it: read-out: IC50 (CLL16); primary patient cells, 24 h.
Source text: (§5) For chronic lymphocytic leukemia, mononuclear cells were isolated from peripheral blood using a Ficoll gradient (GE Healthcare). Primary cells from other lymphoma entities were isolated as previously described [80]. All cells were cryopreserved after isolation and thawed as previously described [81].
as §4
Assay [14] deals with CLL68 chronic lymphocytic leukemia cells. The note with it: read-out: IC50 (CLL68); primary patient cells, 24 h.
Source text: as §5
(§6) The resazurin reduction assay, which is also known as AlamarBlue® assay, was used for the determination of cell viability in all cytotoxicity determinations shown in the present work, as previously described [22]. Briefly, cells were seeded at a specific density depending on the incubation time (24 h: 1 × 10^6 cells/ml) in a 96-well plate and incubated with increasing compound concentrations (0.01–30 µM). After the specified treatment time, resazurin (Sigma, #R7017) was added to a final concentration of 40 µM. […] The viability of control cells was set to 100% and all other values were normalized to the control condition, the dose-response curves were then fitted with Prism v7.01 (GraphPad software, La Jolla, CA, USA).
The test system of assay [15] is DLBCL177 diffuse large B cell lymphoma cells. The note with it: read-out: IC50 (DLBCL177); primary patient cells, 24 h.
Source text: as §5, §6
Assay [16] concerns FL100 follicular lymphoma cells. The note with it: read-out: IC50 (FL100); primary patient cells, 24 h.
Source text: as §5, §6
In assay [17] the test system is FL169 follicular lymphoma cells. The note with it: read-out: IC50 (FL169); primary patient cells, 24 h.
Source text: as §5, §6
Assay [18] has as its system FL303 follicular lymphoma cells. The note with it: read-out: IC50 (FL303); primary patient cells, 24 h.
Source text: as §5, §4

What is called IC50 is the concentration at which inhibition is half-maximal. Take `c1ccc(CNc2cc(-c3c[nH]c4ncccc34)ccn2)cc1` [meriolin 36]: the figures for the “Selectivity Score (< 50% residual activity)” value in [1] (0.3 µM) and in assay [1] (3 µM) were 0.397 and 0.752, respectively. Moreover, the “phosphorylation of RB at Ser612” value in assay [2] (0.1 and 1 µM) is recorded as “increase of the phosphorylation”. Moreover, the “phosphorylation of RB at p-Thr821” value in [2] (0.1 and 1 µM (R547 1 µM), up to 24 h) was “no notable change”. The “phosphorylation of RB at p-Ser612 and p-Thr821” value in [2] (0.1 and 1 µM, up to 24 h) is “This effect was not observed”. Moreover, in assay [2] (up to 24 h), the “phosphorylation of RB at p-Ser249 and p-Thr252” value is “no effect”. Moreover, the “phosphorylation of RNA polymerase II at Ser2” value in [3] is reported as “less pronounced”. For the same compound, the “CDK9 and cyclin T1 protein levels” value in assay [4] is given as “relatively stable”. Further, the “EdU incorporation (proliferation) reduced to” value in assay [5] is 10%. The “expression of cyclin B1” value in assay [6] was “rather increased the expression of cyclin B1”. The values for the residual kinase activity in assay [7] (0.3 µM) and in assay [7] (3 µM) were 66 % of control and 22 % of control, respectively. The IC50 in assay [8] amounted to 1650 nM; in assay [9], 1220 nM; in [10] it was 3480 nM; in assay [11], 940 nM; in assay [12], 1230 nM; in assay [13] it was 200 nM. Moreover, the IC50 in assay [14] turned out to be 420 nM; in assay [15] it was 50 nM; in [16] it was 90 nM; in [17], 100 nM; in assay [18], 170 nM.

`COc1ccnc2[nH]cc(-c3cc(N)nc(N)c3)c12` [meriolin 16]: the results for the “Selectivity Score (< 50% residual activity)” value in assay [1] (0.03 µM) and in assay [1] (0.3 µM) were 0.140 and 0.284, respectively. For the same compound, the “phosphorylation of RB at p-Ser612 and p-Thr821” value is on record as “no longer phosphorylated” in assay [2] (0.1 and 1 µM, up to 24 h); “loss of the phosphorylations” in [2] (0.1 and 1 µM, up to 24 h, listed as Meriolin 16). The “phosphorylation of RB at p-Ser249 and p-Thr252” value in assay [2] (up to 24 h) was “reduced the phosphorylation”. Further, the “phosphorylation of RNA polymerase II at Ser2” value in assay [3] is reported as “total loss of the phosphorylation at Ser2 within 4 h”. Also, in assay [4], the “CDK9 and cyclin T1 protein levels” value is “decrease”. Also, the “EdU incorporation (proliferation) reduced to” value in assay [5] is 10%. Further, the “expression of cyclin B1” value in assay [6] is recorded as “reduced the expression of cyclin B1”. In addition, the residual kinase activity in [7] (0.03 µM) is reported as 39 % of control; in [7] (0.3 µM), 7 % of control. Besides, the IC50 in assay [8] was 20 nM; in [9], 10 nM; in [10], 20 nM; in assay [11] it was 40 nM; in assay [12], 10 nM; in assay [13], 60 nM. Further, the IC50 in [14] was 60 nM; in [15], 80 nM; in assay [16], 60 nM; in assay [17], 2820 nM; in [18], 60 nM.
